Source: US20250340574A1, “MODULATORS OF CYSTIC FIBROSIS TRANSMEMBRANE CONDUCTANCE REGULATOR” (Vertex Pharmaceuticals Incorporated, priority 2022, published 2025)

These compounds were tested against T1, CFTR (F508del/MF-HBE cells) (Homo sapiens, UniProt P13569, DEL508-508) (assay: Ussing chamber assay of CFTR-mediated short-circuit currents, Assay D (single concentration of 1 μM)). Conditions: with 44 nM potentiator and 18 μM Tezacaftor, 18-24 hours, 20% human serum.
T1 construct: human bronchial epithelial (HBE) cells derived from CF subjects heterozygous for F508del and a minimal function CFTR mutation (F508del/MF-HBE); endogenous in cells; host or cells: Primary human bronchial epithelial cells from CF subjects (F508del/MF genotype), differentiated at an air-liquid interface
Type: cell-based
Experimental: Ussing chamber experiments were performed using human bronchial epithelial (HBE) cells derived from CF subjects heterozygous for F508del and a minimal function CFTR mutation (F508del/MF-HBE) and cultured as previously described (Neuberger T, Burton B, Clark H, Van Goor F Methods Mol Biol 2011:741:39-54). After four days the apical media was removed, and the cells were grown at an air liquid interface for >14 days prior to use.
To isolate the CFTR-mediated short-circuit (ISC) current, F508del/MF-HBE grown on Costar® Snapwell™ cell culture inserts were mounted in an Ussing chamber and the transepithelial ISC was measured under voltage-clamp recording conditions (Vhold=0 mV) at 37° C. The basolateral solution contained (in mM) 145 NaCl, 0.83 K2HPO4, 3.3 KH2PO4, 1.2 MgCl2, 1.2 CaCl2, 10 Glucose, 10 HEPES (pH adjusted to 7.4 with NaOH) and the apical solution contained (in mM) 145 NaGluconate, 1.2 MgCl2, 1.2 CaCl2, 10 glucose, 10 HEPES (pH adjusted to 7.4 with NaOH) and 30 μM amiloride to block the epithelial sodium channel. Forskolin (20 μM) was added to the apical surface to activate CFTR, followed by apical addition of a CFTR inhibitor cocktail consisting of BPO, GlyH-101, and CFTR inhibitor 172 (each at 20 μM final assay concentration) to specifically isolate CFTR currents. The CFTR-mediated ISC (μA/cm^2) for each condition was determined from the peak forskolin response to the steady-state current following inhibition.
The activity of the CFTR corrector compounds on the CFTR-mediated ISC was determined in Ussing chamber studies as described above. The F508del/MF-HBE cell cultures were either incubated with the corrector compounds at a range of concentrations in combination with 33 nM (6R,12R)-17-amino-12-methyl-6,15-bis(trifluoromethyl)-13,19-dioxa-3,4,18-triazatricyclo[12.3.1.12,5]nonadeca-1(18),2,4,14,16-pentaen-6-ol and 18 μM Tezacaftor or were incubated with the corrector compounds at a single fixed concentration of 1 μM in combination with 44 nM (6R,12R)-17-amino-12-methyl-6,15-bis(trifluoromethyl)-13,19-dioxa-3,4,18-triazatricyclo[12.3.1.12,5]nonadeca-1(18),2,4,14,16-pentaen-6-ol and 18 μM Tezacaftor for 18-24 hours at 37° C. and in the presence of 20% human serum. The concentration of corrector compounds with 44 nM or 33 nM (6R,12R)-17-amino-12-methyl-6,15-bis(trifluoromethyl)-13,19-dioxa-3,4,18-triazatricyclo[12.3.1.12,5]nonadeca-1(18),2,4,14,16-pentaen-6-ol and 18 μM Tezacaftor during the 18-24 hours incubations was kept constant throughout the Ussing chamber measurement of the CFTR-mediated ISC to ensure compounds were present throughout the entire experiment. The efficacy and potency of the putative F508del correctors was compared to that of the known Vertex corrector, (14S)-8-[3-(2-{Dispiro[2.0.2.1]heptan-7-yl}ethoxy)-1H-pyrazol-1-yl]-12,12-dimethyl-2λ^6-thia-3,9,11,18,23-pentaazatetracyclo[17.3.1.111,14.05,10]tetracosa-1(22),5,7,9,19(23),20-hexaene-2,2,4-trione, in combination with 18 μM Tezacaftor and 1 μM Ivacaftor.
• Assay A: 0.1 μM to 25 μM, 6 concentrations • Assay B: 0.00001 μM to 25 μM, 12 concentrations • Assay C: 0.026 μM to 25 μM, 6 concentrations • Assay D: Activity at single concentration of 1 μM

T1 sequence (P13569 with tags, fused parts or gaps DEL508-508): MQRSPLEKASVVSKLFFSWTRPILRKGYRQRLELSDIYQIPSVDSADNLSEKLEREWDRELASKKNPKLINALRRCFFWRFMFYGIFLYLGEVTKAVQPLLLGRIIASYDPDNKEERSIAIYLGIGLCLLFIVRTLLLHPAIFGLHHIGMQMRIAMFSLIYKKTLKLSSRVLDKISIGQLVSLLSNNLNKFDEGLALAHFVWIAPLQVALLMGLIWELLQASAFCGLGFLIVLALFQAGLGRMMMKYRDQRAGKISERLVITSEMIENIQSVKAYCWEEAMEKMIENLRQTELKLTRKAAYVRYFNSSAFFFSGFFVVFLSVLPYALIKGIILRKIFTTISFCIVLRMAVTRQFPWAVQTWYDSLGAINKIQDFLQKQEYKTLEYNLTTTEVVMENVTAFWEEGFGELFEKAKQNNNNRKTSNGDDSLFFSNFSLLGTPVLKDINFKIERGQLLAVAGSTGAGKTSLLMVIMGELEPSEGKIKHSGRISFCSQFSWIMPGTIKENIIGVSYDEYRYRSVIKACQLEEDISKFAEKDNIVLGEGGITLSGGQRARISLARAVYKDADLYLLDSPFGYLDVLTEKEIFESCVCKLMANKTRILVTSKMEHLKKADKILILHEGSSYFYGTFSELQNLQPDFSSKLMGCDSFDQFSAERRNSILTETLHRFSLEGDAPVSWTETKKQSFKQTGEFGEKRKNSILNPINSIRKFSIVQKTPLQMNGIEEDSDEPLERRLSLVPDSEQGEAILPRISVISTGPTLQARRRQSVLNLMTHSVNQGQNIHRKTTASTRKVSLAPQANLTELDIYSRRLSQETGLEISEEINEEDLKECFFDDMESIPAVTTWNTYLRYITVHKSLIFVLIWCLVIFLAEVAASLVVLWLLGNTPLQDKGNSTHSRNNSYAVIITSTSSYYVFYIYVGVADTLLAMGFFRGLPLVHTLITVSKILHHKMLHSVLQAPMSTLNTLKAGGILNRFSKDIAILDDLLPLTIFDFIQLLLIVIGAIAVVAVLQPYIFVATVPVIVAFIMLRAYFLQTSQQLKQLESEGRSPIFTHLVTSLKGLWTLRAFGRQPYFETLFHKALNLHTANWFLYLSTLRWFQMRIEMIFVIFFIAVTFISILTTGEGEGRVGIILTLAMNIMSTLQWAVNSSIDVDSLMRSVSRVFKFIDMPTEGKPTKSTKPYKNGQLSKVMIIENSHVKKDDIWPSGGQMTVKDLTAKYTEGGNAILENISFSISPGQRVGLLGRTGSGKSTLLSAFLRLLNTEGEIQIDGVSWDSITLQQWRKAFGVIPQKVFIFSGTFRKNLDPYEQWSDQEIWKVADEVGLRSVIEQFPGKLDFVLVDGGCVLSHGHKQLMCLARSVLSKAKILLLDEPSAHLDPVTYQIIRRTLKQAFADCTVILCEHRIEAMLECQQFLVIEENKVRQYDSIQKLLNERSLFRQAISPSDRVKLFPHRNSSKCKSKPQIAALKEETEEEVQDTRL

Compound	D activity at 1 μM (%)
Cc1cccc(CCC(C)C)c1-c1nc2nc(c1C)OC[C@@H](CC(C)(C)C)N(Cc1cnc3oc(C4CC4)cc3n1)C(=O)c1cccc(c1)S(=O)(=O)N2 (atropisomer, axis not shown) [Compound I-205]	+++ (+++ is >60%)
Cc1cccc(C)c1-c1nc2nc(c1C)OC[C@@H](CC(C)(C)C)N(Cc1nc3cc(C4(C)CC4)oc3cc1F)C(=O)c1cccc(c1)S(=O)(=O)N2 [Compound I-236]	+++ (+++ is >60%)
Cc1cccc(C)c1-c1cc2nc(n1)NS(=O)(=O)c1cccc(c1)C(=O)N(Cc1nc3c(cc(C(C)C)n3C)s1)[C@H](CC(C)(C)C)CO2 [III-20, (11R)-6-(2,6-dimethylphenyl)-11-(2,2-dimethylpropyl)-12-[(5-isopropyl-4-methyl-pyrrolo[2,3-d]thiazol-2-yl)methyl]-2,2-dioxo-9-oxa-2λ^6-thia-3,5,12,19-tetrazatricyclo[12.3.1.14,8]nonadeca-1(18),4(19),5,7,14,16-hexaen-13-one]	+++ (+++ is >60%)
Cc1cccc(C)c1-c1cc2nc(n1)NS(=O)(=O)c1cccc(c1)C(=O)N(Cc1nc3cc(C(C)C)oc3cc1F)[C@H](COC(C)C)CO2 [Compound I-77]	+++ (+++ is >60%)
Cc1cccc(C)c1-c1cc2nc(n1)NS(=O)(=O)c1cccc(c1)C(=O)N(Cc1cnc3oc(C4CC4)cc3n1)[C@H](CC(C)C)CO2 [Compound I-156]	+++ (+++ is >60%)
Cc1cccc(C)c1-c1cc2nc(n1)NS(=O)(=O)c1cccc(c1)C(=O)N(Cc1nn(C(C)C)c3ccccc13)[C@H](CC(C)(C)C)CO2 [III-17]	+++ (+++ is >60%)
Cc1cccc(C)c1-c1cc2nc(n1)NS(=O)(=O)c1cccc(c1)C(=O)N(Cc1cnc3cn(C(C)C)nc3n1)[C@@H](CCC1(C)CC1)CO2 [Compound I-129]	+++ (+++ is >60%)
Cc1cccc(C)c1-c1cc2nc(n1)NS(=O)(=O)c1cccc(c1)C(=O)N(Cc1ncc3oc(C(C)(C)C)cc3n1)[C@H](CC(C)(C)C)CO2 [Compound I-250]	+++ (+++ is >60%)
Cc1cccc(C)c1-c1cc2nc(n1)NS(=O)(=O)c1cccc(c1)C(=O)N(Cc1cnc3c(n1)C(=O)N(C(C)C)C3)[C@@H](CCC1(C)CC1)CO2 (stereo in doubt) [III-22]	+++ (+++ is >60%)
Cc1cccc(C)c1-c1cc2nc(n1)NS(=O)(=O)c1cccc(c1)C(=O)N(Cc1cnc3oc(C4CC4)cc3n1)[C@@H](CC1CC(C)(C)C1)CO2 (single isomer, unassigned) [Compound I-165, 12-[(6-Cyclopropylfuro[2,3-b]pyrazin-2-yl)methyl]-11-[(3,3-dimethylcyclobutyl)methyl]-6-(2,6-dimethylphenyl)-2,2-dioxo-9-oxa-2λ^6-thia-3,5,12,19-tetrazatricyclo[12.3.1.14,8]nonadeca-1(18),4(19),5,7,14,16-hexaen-13-one]	+++ (+++ is >60%)
Cc1cccc(C)c1-c1nc2nc(c1C)OC[C@@H](CCC(C)(C)C)N(Cc1cnc3oc(C4CC4)cc3n1)C(=O)c1cccc(c1)S(=O)(=O)N2 [Compound I-184]	+++ (+++ is >60%)
Cc1cccc(C)c1-c1cc2nc(n1)NS(=O)(=O)c1cccc(c1)C(=O)N(Cc1cnc3oc(C(C)C)c(C(F)(F)F)c3n1)[C@H](CCC1(C)CC1)CO2 (stereo in doubt) [Compound I-127]	+++ (+++ is >60%)
Cc1cccc(C)c1-c1cc2nc(n1)NS(=O)(=O)c1cccc(c1)C(=O)N(Cc1cnc3oc(C)c(C4CC4)c3n1)[C@H](CC(C)(C)C)CO2 [Compound I-28]	+++ (+++ is >60%)
Cc1cccc(C)c1-c1cc2nc(n1)NS(=O)(=O)c1cccc(c1)C(=O)N(Cc1cnc3oc(C(C)C)cc3n1)[C@H](COC1CC1)CO2 [Compound I-109]	+++ (+++ is >60%)
Cc1cccc(C)c1-c1nc2nc(c1C)OC[C@@H](CC1(C)CC1)N(Cc1cnc3oc(C4(C)CC4)cc3n1)C(=O)c1cccc(c1)S(=O)(=O)N2 [Compound I-232]	+++ (+++ is >60%)
Cc1cccc(C)c1-c1cc2nc(n1)NS(=O)(=O)c1cccc(c1)C(=O)N(Cc1cnc3cc(C(C)C)n(C)c3n1)[C@H](Cc1ccccc1)CO2 [Compound I-190]	+++ (+++ is >60%)
Cc1cccc(C(C)C)c1-c1nc2nc(c1C)OC[C@@H](CC(C)(C)C)N(Cc1cnc3oc(C(C)C)cc3n1)C(=O)c1cccc(c1)S(=O)(=O)N2 (atropisomer, axis not shown) [Compound I-135]	+++ (+++ is >60%)
Cc1cccc(C)c1-c1cc2nc(n1)NS(=O)(=O)c1cccc(c1)C(=O)N(Cc1ncc3oc(C(C)(C)C)cc3n1)[C@H](CC1(C)CC1)CO2 [Compound I-252]	+++ (+++ is >60%)
Cc1cccc(C)c1-c1nc2nc(c1C)OC[C@@H](COC(C)C)N(Cc1cnc3oc(C4CC4)cc3n1)C(=O)c1cccc(c1)S(=O)(=O)N2 [Compound I-181]	+++ (+++ is >60%)
Cc1cccc(C)c1-c1cc2nc(n1)NS(=O)(=O)c1cccc(c1)C(=O)N(Cc1cnc3nc(C4CC4)n(C)c3n1)[C@H](CC(C)(C)C)CO2 [Compound I-141]	+++ (+++ is >60%)
Cc1cccc(C)c1-c1cc2nc(n1)NS(=O)(=O)c1cccc(c1)C(=O)N(Cc1cnc3cc(C(C)C)n(CCO)c3n1)[C@H](CC(C)(C)C)CO2 [Compound I-160, (11R)-6-(2,6-Dimethylphenyl)-11-(2,2-dimethylpropyl)-12-[[5-(2-hydroxyethyl)-6-isopropyl-pyrrolo[2,3-b]pyrazin-3-yl]methyl]-2,2-dioxo-9-oxa-2λ^6-thia-3,5,12,19-tetrazatricyclo[12.3.1.14,8]nonadeca-1(18),4(19),5,7,14,16-hexaen-13-one]	+++ (+++ is >60%)
Cc1cccc(C)c1-c1cc2nc(n1)NS(=O)(=O)c1cccc(c1)C(=O)N(Cc1nc3cc(C(C)(C)C)oc3cc1F)[C@H](CC13CC(C1)C3)CO2 [Compound I-244]	+++ (+++ is >60%)
Cc1cccc(C)c1-c1nc2nc(c1C)OC[C@@H](CC13CC(C1)C3)N(Cc1cnc3oc(C(C)(C)C)cc3n1)C(=O)c1cccc(c1)S(=O)(=O)N2 [Compound I-223]	+++ (+++ is >60%)
Cc1cccc(C)c1-c1cc2nc(n1)NS(=O)(=O)c1cccc(c1)C(=O)N(Cc1cnc3oc(C4CC4)cc3n1)[C@H](C[C@@H]1CCCO1)CO2 (stereo in doubt) [Compound I-45]	+++ (+++ is >60%)

Same assay, conditions: with 44 nM potentiator and 18 μM Tezacaftor, 20% human serum

Compound	D act. at 1 μM (%)
CCc1c2nc(nc1-c1c(C)cccc1C)NS(=O)(=O)c1cccc(c1)C(=O)N(Cc1cnc3oc(C(C)(C)C)cc3n1)[C@H](COC(C)C)CO2 [IV-3]	+++ (+++ is >60%)
Cc1cccc(C)c1-c1cc2nc(n1)NS(=O)(=O)c1cccc(c1)C(=O)N(Cc1cnc3cc(C4(C)CC4)n(C)c3n1)[C@@H](C(C1CCC1)C1CCC1)CO2 (single isomer, unassigned) [IV-21, 11-[di(cyclobutyl)methyl]-6-(2,6-dimethylphenyl)-12-[[5-methyl-6-(1-methylcyclopropyl)pyrrolo[2,3-b]pyrazin-3-yl]methyl]-2,2-dioxo-9-oxa-2λ^6-thia-3,5,12,19-tetrazatricyclo[12.3.1.14,8]nonadeca-1(18),4(19),5,7,14,16-hexaen-13-one]	++ (++ is 30-60%)
Cc1cccc(C)c1-c1cc2nc(n1)NS(=O)(=O)c1cccc(c1)C(=O)N(Cc1ncc3cc(C4CC4)n(C)c3n1)[C@H](COC(C)C)CO2 [IV-29]	+++ (+++ is >60%)
Cc1cccc(C)c1-c1cc2nc(n1)NS(=O)(=O)c1cccc(c1)C(=O)N(Cc1cnc3oc(C(C)(C)C)cc3n1)[C@H](CC(C)C)CO2 [IV-6]	+++ (+++ is >60%)
